Measured values published in US6895396B2, “Neural network methods to predict enzyme inhibitor or receptor ligand potency” (Albert Einstein College of Medicine of Yeshiva University, priority 1998, dated 2005).

Key:
cytidine deaminase = cytidine deaminase (Escherichia coli, UniProt P0ABF6); details: binding free energy from the literature; cited from earlier work
adenosine deaminase = target: T1, adenosine deaminase (Homo sapiens, UniProt P00813); assay: Adenosine deaminase binding free energy, experimental; details: for ΔG/RT (experimental): binding free energy, dimensionless
T1 sequence (P00813 1-363): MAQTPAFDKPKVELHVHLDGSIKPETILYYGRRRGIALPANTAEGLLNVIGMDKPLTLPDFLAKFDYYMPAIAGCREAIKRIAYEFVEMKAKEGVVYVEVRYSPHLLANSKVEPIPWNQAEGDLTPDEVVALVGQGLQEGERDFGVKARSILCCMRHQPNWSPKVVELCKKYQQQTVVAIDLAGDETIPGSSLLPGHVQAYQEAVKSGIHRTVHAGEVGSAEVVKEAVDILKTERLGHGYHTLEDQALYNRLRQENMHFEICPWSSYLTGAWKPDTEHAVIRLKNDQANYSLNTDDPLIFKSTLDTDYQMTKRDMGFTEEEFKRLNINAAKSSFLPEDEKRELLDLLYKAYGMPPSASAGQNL

AMP nucleosidase = details: binding free energy, dimensionless

cytidine deaminase, sequence (P0ABF6 whole entry): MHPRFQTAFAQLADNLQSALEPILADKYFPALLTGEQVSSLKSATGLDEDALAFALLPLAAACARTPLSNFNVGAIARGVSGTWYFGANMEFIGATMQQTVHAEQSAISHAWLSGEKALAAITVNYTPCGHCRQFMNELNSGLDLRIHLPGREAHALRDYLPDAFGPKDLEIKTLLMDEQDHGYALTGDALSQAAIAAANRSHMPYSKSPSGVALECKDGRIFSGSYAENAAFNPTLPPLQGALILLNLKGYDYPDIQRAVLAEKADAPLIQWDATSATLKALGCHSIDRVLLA

## O=C1NC(O)C(Cl)=CN1[C@@H]1O[C@H](CO)[C@@H](O)[C@H]1O (some centres unmarked) [hydrated 5-chloro-pyrimidine-2-one ribonucleoside]
Cytidine deaminase
  ΔG/RT (experimental): −19

## OC[C@H]1O[C@@H](n2cnc3c2N=CNC3)[C@H](O)[C@@H]1O [1,6-dihydropurine ribonucleoside]
Adenosine deaminase
  inhibitor quality in words: not a good inhibitor
  ΔG/RT (experimental): −12

## Nc1ccn([C@@H]2O[C@H](CO)[C@@H](O)[C@H]2O)c(=O)n1 [cytidine]
Cytidine deaminase
  ΔG/RT (experimental): −9.9

## Nc1ncnc2c([C@@H]3O[C@H](CO)[C@@H](O)[C@H]3O)[nH]nc12 [formycin]
AMP nucleosidase
  ΔG/RT (experimental): −17

## hydrated 5-bromo-pyrimidine-2-one ribonucleoside
Cytidine deaminase
  ΔG/RT (experimental): −18

## aminopyrazolo pyrimidine ribonucleotide
AMP nucleosidase
  ΔG/RT (experimental): −12

## Nc1ncnc2c1ncn2[C@@H]1O[C@H](CO)[C@@H](O)[C@H]1O [adenosine]
Adenosine deaminase
  ΔG/RT (experimental): −10

## OC[C@H]1O[C@@H](n2cnc3c2NC=N[C@@H]3O)[C@H](O)[C@@H]1O [hydrated purine ribonucleoside]
Adenosine deaminase
  ΔG/RT (experimental): −29

## O=C1NCC=CN1[C@@H]1O[C@H](CO)[C@@H](O)[C@H]1O [3,4-dihydrozebularine]
Cytidine deaminase
  ΔG/RT (experimental): −10

## O=c1ccn([C@@H]2O[C@H](CO)[C@@H](O)[C@H]2O)c(=O)[nH]1 [uridine]
Cytidine deaminase
  ΔG/RT (experimental): −6.0

## Nc1ncnc2c1ccn2[C@@H]1O[C@H](CO)[C@@H](O)[C@H]1O [tubercidin]
AMP nucleosidase
  ΔG/RT (experimental): −9.9

## Nc1ncnc2c1ncn2[C@@H]1O[C@H](COP(=O)(O)O)[C@@H](O)[C@H]1O [AMP]
AMP nucleosidase
  ΔG/RT (experimental): −9.0

## (R)-coformycin
Adenosine deaminase
  ΔG/RT (experimental): −25

## NC1=NC(=O)N([C@@H]2O[C@H](CO)[C@@H](O)[C@H]2O)CC1 [5,6-dihydrocytidine]
Cytidine deaminase
  ΔG/RT (experimental): −9.1

## hydrated pyrimidine-2-one ribonucleoside
Cytidine deaminase
  ΔG/RT (experimental): −27

## O=C1NC(O)C(F)=CN1[C@@H]1O[C@H](CO)[C@@H](O)[C@H]1O (some centres unmarked) [hydrated 5-fluoro-pyrimidine-2-one ribonucleoside]
Cytidine deaminase
  ΔG/RT (experimental): −24
